One may read the IC50 as the concentration that gives 50% inhibition.

Read-outs that look alike come from different tables or passages of the source.

Data set [1] deals with SARS-CoV-2. The data set can be described thus: microbe, parasite or virus in culture. The data set is classed as cell-based. As to conditions: read-out: SARS-CoV-2 virus 50% inhibitory ability (IC50 value).
The test system of data set [2] is SARS-CoV-2. The data set can be described thus: microbe, parasite or virus in culture. The data set is classed as cell-based. Conditions: for IC50: read-out: SARS-CoV-2 virus 50% inhibitory ability (IC50 value); for SARS-CoV-2 inhibitory ability (in words): comparison at IC50 values with Remdesivir, Lopinavir and Chloroquine.
Data set [3] is described as follows: in vitro. As to conditions: African green monkey.
For data set [4], the system named is Vero cell lines. The data set can be described thus: Cell viability of Vero cells in the SARS-CoV-2 inhibition experiment (Example 2).
For data set [5], the system named is VERO cells. Put plainly: Cell viability of VERO cells by WST-1 assay (Example 3). As to conditions: read-out: 50% cell viability inhibitory concentration (CC50 value); VERO cells, WST-1 assay. (Tetrazolium assays rely on reduction of a dye to a coloured formazan, in cell work by metabolically active cells.)

On to `COc1cc2cc3c(c(-c4cc5c(cc4O)OCO5)c2cc1OC)C(=O)OC3` [6′ hydroxyl justicidin-B, 9-(6-hydroxy-benzo[1,3]dioxol-5-yl)-6,7-dimethoxy-3H-naphtho[2,3-c]furan-1-one], for which the IC50 stood at 50 nM in data set [1] (Severe acute respiratory syndrome coronavirus 2, Vero) and 1060 nM in data set [2] (Severe acute respiratory syndrome coronavirus 2, Vero, 24 h). Moreover, in data set [2] (Severe acute respiratory syndrome coronavirus 2, concentration 0.10 uM, Vero cells, 24 h, read-out: SARS-CoV-2 virus inhibitory ability (%, average ± standard deviation)), the inhibition at 0.1 µM worked out at 1.45 ± 1.16%. For the same molecule, the inhibition at 0.2 µM in data set [2] (Severe acute respiratory syndrome coronavirus 2, concentration 0.20 uM, Vero cells, 24 h, read-out: SARS-CoV-2 virus inhibitory ability (%, average ± standard deviation)) was -1.71 ± 4.34%. In data set [2] (Severe acute respiratory syndrome coronavirus 2, concentration 0.39 uM, Vero cells, 24 h, read-out: SARS-CoV-2 virus inhibitory ability (%, average ± standard deviation)), the inhibition at 0.39 µM came to 3.39 ± 3.95%. Besides, the inhibition at […] in data set [2] (Severe acute respiratory syndrome coronavirus 2, concentration 0.78 uM, Vero cells, 24 h, read-out: SARS-CoV-2 virus inhibitory ability (%, average ± standard deviation)) amounted to 35.6 ± 0.69%. For the same molecule, the inhibition at 1.56 µM in data set [2] (Severe acute respiratory syndrome coronavirus 2, concentration 1.56 uM, Vero cells, 24 h, read-out: SARS-CoV-2 virus inhibitory ability (%, average ± standard deviation)) worked out at 68.6 ± 3.12%. Besides, the inhibition at 3.13 µM in data set [2] (Severe acute respiratory syndrome coronavirus 2, concentration 3.13 uM, Vero cells, 24 h, read-out: SARS-CoV-2 virus inhibitory ability (%, average ± standard deviation)) was found to be 95.86 ± 0.86%. Further, the inhibition at 6.25 µM in data set [2] (Severe acute respiratory syndrome coronavirus 2, concentration 6.25 uM, Vero cells, 24 h, read-out: SARS-CoV-2 virus inhibitory ability (%, average ± standard deviation)) amounted to 99.74 ± 0.24%. In data set [2] (Severe acute respiratory syndrome coronavirus 2, concentration 12.5 uM, Vero cells, 24 h, read-out: SARS-CoV-2 virus inhibitory ability (%, average ± standard deviation)), the inhibition at 12.5 µM turned out to be 98.9 ± 1.49%. In data set [2] (Severe acute respiratory syndrome coronavirus 2, concentration 25 uM, Vero cells, 24 h, read-out: SARS-CoV-2 virus inhibitory ability (%, average ± standard deviation)), the inhibition at 25 µM turned out to be 99.79 ± 0.6%. For the same molecule, the inhibition at 50 µM in data set [2] (Severe acute respiratory syndrome coronavirus 2, concentration 50 uM, Vero cells, 24 h, read-out: SARS-CoV-2 virus inhibitory ability (%, average ± standard deviation)) amounted to 97.8 ± 2.47%. For the same molecule, the “SARS-CoV-2 inhibitory ability (in words)” value in data set [2] (Vero cells) is “remarkably more excellent”. This molecule also came in with a CC50 in data set [3] of 314 µM. Also, the “Cell viability (%, average ± standard deviation)” value in data set [4] (concentration 0.10 uM) is on record as 100.66 ± 0.73%; in data set [4] (concentration 0.20 uM), 104.63 ± 0.44%; in data set [4] (concentration 0.39 uM), 105.17 ± 0.85%; in data set [4] (concentration 1.56 uM), 107.86 ± 0.60%; in data set [4] (concentration 3.13 uM), 105.46 ± 0.38%; in data set [4] (concentration 6.25 uM), 103.44 ± 1.31%. The “Cell viability (%, average ± standard deviation)” value in data set [4] (concentration 12.5 uM) is 101.11 ± 0.36%; in data set [4] (concentration 25 uM) it was 97.80 ± 1.29%; in data set [4] (concentration 50 uM), 93.38 ± 0.72%.

Take `COc1cc2cc3c(c(-c4ccc5c(c4)OCO5)c2cc1OC)C(=O)OC3` [Justicidin-B, 9-benzo[1,3]dioxol-5-yl-6,7-dimethoxy-3H-naphtho[2,3-c]furanone]: the IC50 in data set [1] (VERO cells infected at MOI 0.1 for one hour, then drug, culture fluid after 48 hours, qRT-PCR) worked out at 170 nM; in data set [2] it was 203 nM. The CC50 in data set [5] is more than 800 µM. Moreover, in data set [2] (Vero cells), the “SARS-CoV-2 inhibitory ability (in words)” value is given as “remarkably more excellent”. The “SARS-CoV-2 virus inhibitory ability (%, average ± standard deviation)” value was determined as 13.37 ± 6.72% in data set [2] (concentration 0.10 uM, Vero cells, 24 h); 48.73 ± 2.82% in data set [2] (concentration 0.20 uM, Vero cells, 24 h); 88.06 ± 0.59% in data set [2] (concentration 0.39 uM, Vero cells, 24 h); 99.61 ± 0.65% in data set [2] (concentration 1.56 uM, Vero cells, 24 h); 100.03 ± 0.27% in data set [2] (concentration 3.13 uM, Vero cells, 24 h); 100.01 ± 0.14% in data set [2] (concentration 12.5 uM, Vero cells, 24 h). The “SARS-CoV-2 virus inhibitory ability (%, average ± standard deviation)” value in data set [2] (concentration 25 uM, Vero cells, 24 h) is 100.00 ± 0.21%; in data set [2] (concentration 50 uM, Vero cells, 24 h), 100.28 ± 0.49%. Besides, the “Cell viability (%, average ± standard deviation)” value in data set [4] (concentration 0.10 uM) stood at 107.08 ± 1.75%; in data set [4] (concentration 0.20 uM), 110.62 ± 0.00%; in data set [4] (concentration 0.39 uM) it was 107.70 ± 4.88%; in data set [4] (concentration 1.56 uM) it was 102.83 ± 5.24%; in data set [4] (concentration 3.13 uM), 98.69 ± 5.68%; in data set [4] (concentration 6.25 uM), 94.60 ± 3.46%. Further, the “Cell viability (%, average ± standard deviation)” value in data set [4] (concentration 12.5 uM) is reported as 90.01 ± 1.60%; in data set [4] (concentration 25 uM), 83.49 ± 1.22%; in data set [4] (concentration 50 uM), 78.67 ± 2.53%.

The values above are taken from patent US20230143345A1, “PHARMACEUTICAL COMPOSITION FOR PREVENTION OR TREATMENT OF DISEASES CAUSED BY SARS-COV-2” (DONG WHA PHARM. CO., LTD., priority 2020, published 2023).
